Experiments:
rats = settings: cited from earlier work
euploid and Ts65Dn mice [1] = assay: Novel object recognition (NOR) task; assay type: in vivo
Procedure: The testing protocol is a variant of the testing method according to Fernandez et al. 2007. The Object recognition protocol used to study learning and memory was performed on a 10 minutes period between the first presentation of the objects and the change of one object. Euploid and Ts65Dn mice were tested with or without α5IA treatment. The apparatus consisted of a black square arena (50×50 cm) located in a room under weak controlled luminosity (4-6 Lux) and constant 60 dB white noise. The first day, all mice (16 euploid and 16 Ts65Dn mice) were handled by the experimenter in the animal facility 2×3 min to familiarize them with human contact. On day 2, mice were placed for 20 min in the empty arena for getting used to the apparatus and test room. On day 3, four identical objects were placed symmetrically in the corners of the arena, 14 cm from the side walls. […]
During all open field sessions, mice were monitored using a videotracking system (Any-Maze™). Object exploration was manually scored with an ethological keyboard and defined as the orientation of the nose to the object at a distance<6 cm. […]
For the retention phase, the percent of time exploring familiar vs. novel objects was calculated to assess memory performance (a score of 50% corresponding to equal exploration times of the two objects indicated no object memory). […]
Discrimination ratio was calculated using the formula: […]

mouse hippocampal slice = settings: cited from earlier work
euploid and Ts65Dn mice [2] = assay: Convulsant effects after a single intraperitoneal injection; assay type: in vivo; settings: 50 mg/kg i.p., observed 20 min
Procedure: The convulsant action of the α5IA or beta CCM was evaluated after a single intraperitoneal injection of 50 or 3 mg/Kg of α5IA or beta CCM, respectively. The 50 mg/Kg dose of α5IA corresponded to 10 times the dose with promnesiant effects and 10 times the active dose in the object recognition test (5 mg/Kg)
(§1) The proconvulsant action of the α5IA was measured after injection of a subconvulsive dose of pentylenetetrazole. Mice were injected with either vehicle or the α5IA (50 mg/kg i.p) and 20 min later they received an intraperitoneal injection of 45 mg/kg of pentylenetetrazole. […] Six to 7 mice were used for each condition. The latency to the first myoclonic jerk episode and the convulsion grade were recorded during a 1200-s period of observation. Four grades were empirically determined: Grade 0: no effect; grade 1: tail up and curved; grade 2: reversed tail and convulsive shivers; grade 3: myoclonic convulsions.
(§2) We then tested the proconvulsant effect of α5IA by injecting it (50 mg/kg) 20 min before a sub-convulsant dose of pentylenetetrazol (45 mg/kg) that induces myoclonic convulsions in about 50% of mice.

[3] = mainly in urine and in feces; cited from earlier work
euploid and Ts65Dn mice [4] = assay: Pro-convulsant effects after pentylenetetrazol (45 mg/kg); assay type: in vivo; settings: mouse, in vivo, 50 min
Procedure: For testing the pro-convulsant effects of α5IA, a sub-convulsant dose of pentylenetetrazole (45 mg/kg i.p.) that induces myoclonic convulsions in about 50% of mice was injected i.p. 20 min after injection of α5IA (50 mg/kg) or placebo.
as §1, §2

euploid and Ts65Dn mice [5] = assay: Anxiety-related behavior in the elevated plus maze; assay type: in vivo; settings: for Time spent in the open arms of the elevated plus-maze: acute, one single 15 mg/kg i.p. injection
Procedure: FIG. 6 depicts results from an anxiety-related behavior study of α5IA. Anxiety was assessed in the elevated plus maze, in both euploid and Ts65Dn mice under placebo or α5IA. Time spent in the open arms of the elevated plus-maze was taken as a measure of anxiety levels.
Modulation of anxiety-related behaviors by α5IA was more precisely assessed using an elevated-plus maze, in a total of 42 mice, 30 min after i.p. injections (placebo: 11 euploid and 7 Ts65Dn mice; α5IA (15 mg/kg): 14 euploid and 10 Ts65Dn mice). The maze was constructed of black perspex (length, 28 cm; width, 5 cm; height from floor, 40 cm; overall luminosity in open arms: 70 1×) with two opposing open arms, and two enclosed arms equipped with three 16 cm high walls. Mice were placed in the central region of the maze and behavior was recorded for a 5 min period using the Any. Maze software that automatically calculates the time spent in the different parts of the maze (e.g., open and enclosed arms).
To explore the potential adversity of chronic injections of α5IA (5 mg/kg), another group of euploid mice was treated for two weeks (5 injections/week; 5 α5IA treated mice; 5 placebo-treated mice). After repeated treatment, these mice were evaluated in the elevated plus maze as described above.

[6] = test system: GABAA receptors containing either an α1, α2, α3 or α5 subunit; settings: cited from earlier work
[7] = target: GABAA receptors α1, α2, α3 and α5 subtypes (Homo sapiens, UniProt P31644); settings: α5 subtype; cited from earlier work
Chain of GABAA receptors α1, α2, α3 and α5 subtypes (Homo sapiens, UniProt P31644) (P31644 32-462): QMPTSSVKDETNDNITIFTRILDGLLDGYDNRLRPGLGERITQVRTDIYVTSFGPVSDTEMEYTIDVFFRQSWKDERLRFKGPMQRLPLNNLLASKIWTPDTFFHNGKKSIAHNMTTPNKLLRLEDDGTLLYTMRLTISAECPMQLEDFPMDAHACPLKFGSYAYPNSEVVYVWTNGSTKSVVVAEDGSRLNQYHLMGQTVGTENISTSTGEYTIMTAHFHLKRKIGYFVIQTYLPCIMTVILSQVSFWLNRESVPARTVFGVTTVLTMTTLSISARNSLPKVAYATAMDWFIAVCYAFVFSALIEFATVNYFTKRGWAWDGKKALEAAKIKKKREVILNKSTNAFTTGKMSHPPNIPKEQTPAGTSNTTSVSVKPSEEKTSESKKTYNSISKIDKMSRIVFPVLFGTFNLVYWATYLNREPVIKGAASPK
Chain of GABAA receptors α1, α2, α3 and α5 subtypes (Homo sapiens, UniProt P31644) (P28472 26-473 partner): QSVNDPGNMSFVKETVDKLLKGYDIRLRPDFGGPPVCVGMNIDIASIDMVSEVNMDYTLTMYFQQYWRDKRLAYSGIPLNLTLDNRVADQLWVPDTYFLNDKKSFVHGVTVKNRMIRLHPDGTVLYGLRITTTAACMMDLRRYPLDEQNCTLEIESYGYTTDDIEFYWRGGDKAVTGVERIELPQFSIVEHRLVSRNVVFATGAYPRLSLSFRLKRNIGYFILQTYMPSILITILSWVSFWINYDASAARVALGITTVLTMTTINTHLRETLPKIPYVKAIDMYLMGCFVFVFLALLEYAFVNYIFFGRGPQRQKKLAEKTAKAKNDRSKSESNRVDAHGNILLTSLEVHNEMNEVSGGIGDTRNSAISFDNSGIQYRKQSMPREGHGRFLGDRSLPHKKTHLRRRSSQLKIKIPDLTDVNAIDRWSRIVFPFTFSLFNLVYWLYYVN
Chain of GABAA receptors α1, α2, α3 and α5 subtypes (Homo sapiens, UniProt P31644) (P18507 40-475 partner): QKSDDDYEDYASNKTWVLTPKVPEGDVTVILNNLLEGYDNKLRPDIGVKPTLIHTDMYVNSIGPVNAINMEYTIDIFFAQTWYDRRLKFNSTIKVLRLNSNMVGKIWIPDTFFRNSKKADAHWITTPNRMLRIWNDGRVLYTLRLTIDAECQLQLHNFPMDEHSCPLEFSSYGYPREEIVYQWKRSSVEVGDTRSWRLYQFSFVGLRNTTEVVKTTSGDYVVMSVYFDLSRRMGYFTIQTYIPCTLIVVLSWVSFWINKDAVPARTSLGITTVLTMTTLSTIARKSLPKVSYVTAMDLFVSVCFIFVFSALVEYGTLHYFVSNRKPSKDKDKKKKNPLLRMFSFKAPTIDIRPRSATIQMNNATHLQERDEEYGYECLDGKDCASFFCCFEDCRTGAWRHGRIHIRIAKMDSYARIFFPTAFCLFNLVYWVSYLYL

[8] = test system: GABAA receptors α1, α2, α3 and α5 subtypes; settings: α1, α2 and α3 subtypes; cited from earlier work

Cc1cc(-c2nnc3c4ccccc4c(OCc4cn(C)nn4)nn23)no1 [α5IA, 3-(5-methylisoxazol-3-yl)-6-[(1-methyl-1,2,3-triazol-4-yl)methyloxy]-1,2,4-triazolo[3,4-a]phthalazine]
cognitive performance in variant of the Morris water maze task (rats; rat, in vivo): enhance cognitive performance
effective promnesiant dose in the MWM test (rats; rats): 3 mg/kg
object recognition performance compared to wild-type mice receiving a placebo (euploid and Ts65Dn mice [1]; Ts65Dn mice): above-normal object recognition performance
recognition performance (euploid and Ts65Dn mice [1]; i.p. 5 mg/kg, 30 min before acquisition, both euploid and Ts65Dn mice): largely improved their recognition performance
long-term potentiation (mouse hippocampal slice): enhance long-term potentiation
Convulsant mice rate (euploid and Ts65Dn mice [2]; Euploids): 0/6
Convulsant mice rate (euploid and Ts65Dn mice [2]; Ts65Dn): 0/7
metabolism [3]: exclusively metabolized into the hydroxymethyl isoxazol metabolite M1
Convulsant mice rate (euploid and Ts65Dn mice [4]; Ts65Dn): 4/7
Convulsant mice rate (euploid and Ts65Dn mice [4]; euploid): 3/6
Time spent in the open arms of the elevated plus-maze (euploid and Ts65Dn mice [5]; Ts65Dn mice, p<0.05): significantly reduced the time spent in open arms
Time spent in the open arms of the elevated plus-maze (euploid and Ts65Dn mice [5]; euploid mice): did not modify the behavior
anxiety levels in the elevated plus maze (euploid and Ts65Dn mice [5]; semi-chronic, 5 mg/kg 5 times a week for 2 weeks, euploid mice, p>0.73): did not alter the anxiety levels
binding affinity at the benzodiazepine binding site [6]: equal affinity
efficacy at the α5 subtype [7]: exhibits inverse agonism
efficacy at the α1, α2 and α3 subtypes [8]: low or antagonist efficacy

From patent US9078874B2, “Composition and method for treating cognitive impairments in down syndrom subjects” (Centre National De La Recherche Scientifique—CNRS, priority 2009, dated 2015)
